In ChEMBL document CHEMBL3886771, “Cyclopropanecarboxamido-substitute aromatic compounds as anti-tumor agents” (2016):

Biological target: Vascular endothelial growth factor receptor 2 (Homo sapiens, UniProt P35968)
Test: Inhibition Assay: [Experimental method]: Use Lance@Ultra Ulight™-TK assay kit from PerKinElmer to evaluate the inhibitory activity of compounds at KDR kinase. [Instrument]: PerKinElmer's ENVISION plate reader. [Materials]: Optiplate-384 well plate (PerKinElmer), kinase buffer (50 mM Hepes pH7.5, 0.25 mM EGTA, 2 mM DTT, 0.01% Tween 20, 10 mM Mg2+, 0.5 mM Mn2+), KDR kinase (790-1356 AA, Crown Bioscience), KDR kinase substrate (PerKinElmer catalogue # TRF0127-M), Lance@Eu-W1024-anti-phosphotyrosine (PT66) (PerKinElmer, catalogue #AD0068), ATP (Invitrogen), DMSO (Sigma, catalogue #34869), purified water (Millipore, type: Milli-Q). [Study conditions]: Mix KDR (final concentration: 20 nM) and compound (final DMSO: 0.5%), pre-incubate for 20 min at 30° C.; then add ATP (final concentration: 90 μM) and the substrate (final concentration 50 μM). React for 2 hrs at 30° C. After the reaction, add antibody and reaction for 60 min at 30° C. Read the plate (615 nm, 665 nm), calculate the ratio of the value at 665 nm vs 615 nm and analyze the data.

Vascular endothelial growth factor receptor 2, sequence (P35968 whole entry, the tested form may be a part): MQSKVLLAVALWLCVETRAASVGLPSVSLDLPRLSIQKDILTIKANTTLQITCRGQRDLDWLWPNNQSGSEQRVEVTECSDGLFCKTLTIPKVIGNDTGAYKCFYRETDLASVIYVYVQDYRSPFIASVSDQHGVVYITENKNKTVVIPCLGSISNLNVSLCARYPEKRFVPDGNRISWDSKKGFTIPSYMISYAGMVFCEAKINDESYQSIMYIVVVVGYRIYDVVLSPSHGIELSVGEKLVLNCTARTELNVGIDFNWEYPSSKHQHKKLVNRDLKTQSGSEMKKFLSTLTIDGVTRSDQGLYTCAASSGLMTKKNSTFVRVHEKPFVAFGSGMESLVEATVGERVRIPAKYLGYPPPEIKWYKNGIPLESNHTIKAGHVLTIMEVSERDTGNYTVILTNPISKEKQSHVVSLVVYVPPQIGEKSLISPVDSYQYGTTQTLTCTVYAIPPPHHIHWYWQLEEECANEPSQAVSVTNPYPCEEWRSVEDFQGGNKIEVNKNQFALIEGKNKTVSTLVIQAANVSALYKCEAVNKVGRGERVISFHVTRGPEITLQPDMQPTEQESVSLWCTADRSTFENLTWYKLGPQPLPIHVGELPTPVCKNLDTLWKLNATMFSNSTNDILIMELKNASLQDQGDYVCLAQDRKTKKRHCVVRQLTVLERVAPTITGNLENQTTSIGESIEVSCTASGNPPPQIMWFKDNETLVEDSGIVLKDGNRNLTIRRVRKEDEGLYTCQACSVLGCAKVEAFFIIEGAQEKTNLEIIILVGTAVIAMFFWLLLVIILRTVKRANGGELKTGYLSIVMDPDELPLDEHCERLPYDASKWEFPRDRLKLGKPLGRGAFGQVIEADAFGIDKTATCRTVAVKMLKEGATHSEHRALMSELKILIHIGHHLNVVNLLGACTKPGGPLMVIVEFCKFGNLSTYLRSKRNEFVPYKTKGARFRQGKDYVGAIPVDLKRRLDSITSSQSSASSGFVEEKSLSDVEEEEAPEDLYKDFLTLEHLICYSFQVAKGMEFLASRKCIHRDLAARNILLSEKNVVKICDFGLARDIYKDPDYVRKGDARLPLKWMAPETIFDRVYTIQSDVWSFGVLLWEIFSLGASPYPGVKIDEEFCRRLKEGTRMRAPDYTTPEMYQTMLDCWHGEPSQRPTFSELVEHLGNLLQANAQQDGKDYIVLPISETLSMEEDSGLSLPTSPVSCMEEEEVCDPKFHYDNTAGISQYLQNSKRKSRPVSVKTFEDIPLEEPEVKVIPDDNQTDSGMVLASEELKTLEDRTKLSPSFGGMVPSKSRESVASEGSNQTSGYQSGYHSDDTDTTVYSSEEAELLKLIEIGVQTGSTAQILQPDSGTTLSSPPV

With O=C(Nc1ccc(Oc2ccnc(NC(=O)C3CC3)c2)c(F)c1)Nc1ccc(Cl)c(C(F)(F)F)c1 the IC50 was 11.5 nM.

CC(c1cc(NC(=O)Nc2ccc(Oc3ccnc(NC(=O)C4CC4)c3)c(F)c2)cc(C(F)(F)F)c1)N1CCNCC1 (configuration not stated) showed an IC50 of 26.6 nM.
